Test results as given in US4288595A, “7-(Substituted)-7H-pyrrolo[3,2-f]quinazoline-1,3-diamines” (priority 1980, dated 1981).
≈ marks a conversion by molar mass, not a printed value.

system: Plasmodium berghei KBG 173; experiment: Blood schizonticidal antimalarial test in mice infected with Plasmodium berghei; conditions: Plasmodium berghei, in Mus musculus, sc, 1440 h, read-out: Lowest Dose Curing All Mice
Procedure: (§1) Test animals weigh from 18 to 22 grams but weight variations in any given experimental or control group are confined to 2-3 grams. All animals in any given test are approximately of the same age. Animals on test are housed in metal-topped plastic cages, given a standard laboratory diet and water ad libitum.
(§2) Test animals receive an intraperitoneal injection of 0.5 ml. of 1:100 dilution of heparinized heart's blood with a minimum of 90% parasitized cells (4×10^7 cells), drawn from donor mice infected one week earlier with Plasmodium berghei. The donor strain is maintained by weekly passages in separate groups of mice inoculated with a 0.5 ml. of 1:500 dilution of heparinized heart's blood.
(§3) Test compounds are administered after dissolution or suspension in peanut oil. A single dose is given subcutaneously 72 hours after the mice are infected with Plasmodium berghei. […] Since treatment is withheld for three days to permit the infection to become well established and death occurs in untreated controls within 6-8 days, it is felt that this system presents a candidate compound with the maximum challenge. In order to check factors such as changes in the infectivity of Plasmodium berghei or in the susceptibility of the host or to detect technical errors, a group of infected animals treated with pyrimethamine at dose levels producing definite increases in survival time is included in a positive control in every experiment.
(§4) In each experiment test compounds are administered in graded dosages. […] Deaths prior to the sixth day, when untreated controls begin to die, are regarded as nonparasitic and become the basis for toxicity evaluations. Treated animals are kept under observation for 60 days. Survivors at the end of this period of time are considered as cured. In calculating mean survival time, toxic deaths and 60-day survivors are not included.

SMILES | ED100 [mg/kg]
Nc1nc(N)c2c(ccc3c2ccn3S(=O)(=O)c2cccc(C(F)(F)F)c2)n1 [Example 9] | 40
CC(=O)Nc1ccc(S(=O)(=O)n2ccc3c4c(N)nc(N)nc4ccc32)cc1 [Example 11] | 20
CC(C)(C)c1ccc(S(=O)(=O)n2ccc3c4c(N)nc(N)nc4ccc32)cc1 [Example 12] | 40

same assay, conditions: Plasmodium berghei, in Mus musculus, sc, 1440 h, read-out: Min. Curing Dose

SMILES | minimal effective dose [mg/kg]
Nc1nc(N)c2c(ccc3c2ccn3S(=O)(=O)c2ccc([N+](=O)[O-])cc2)n1 [Example 3] | 640
Nc1nc(N)c2c(ccc3c2ccn3S(=O)(=O)c2ccc3ccccc3c2)n1 [Example 4] | 20
Nc1nc(N)c2c(ccc3c2ccn3S(=O)(=O)c2cccc(C(F)(F)F)c2)n1 [Example 9] | 10
Nc1nc(N)c2c(ccc3c2ccn3S(=O)(=O)c2ccccc2)n1 [Example 10] | 40
CC(=O)Nc1ccc(S(=O)(=O)n2ccc3c4c(N)nc(N)nc4ccc32)cc1 [Example 11] | 10
CC(C)(C)c1ccc(S(=O)(=O)n2ccc3c4c(N)nc(N)nc4ccc32)cc1 [Example 12] | 20

same assay, conditions: dose 5 mg. per kg., s.c.

SMILES | ΔMST (increase in mean survival time of treated animals to untreated controls)
Nc1nc(N)c2c(ccc3c2ccn3S(=O)(=O)c2cccc(C(F)(F)F)c2)n1 [Example 9] | 6.6
CC(=O)Nc1ccc(S(=O)(=O)n2ccc3c4c(N)nc(N)nc4ccc32)cc1 [Example 11] | 9.3

same assay, conditions: dose 10 mg. per kg., s.c.

SMILES | ΔMST (increase in mean survival time of treated animals to untreated controls)
Nc1nc(N)c2c(ccc3c2ccn3S(=O)(=O)c2ccc3ccccc3c2)n1 [Example 4] | 11.4
CC(C)(C)c1ccc(S(=O)(=O)n2ccc3c4c(N)nc(N)nc4ccc32)cc1 [Example 12] | 6.5

same assay, conditions: dose 20 mg. per kg., s.c.

SMILES | ΔMST (increase in mean survival time of treated animals to untreated controls)
Nc1nc(N)c2c(ccc3c2ccn3S(=O)(=O)c2ccccc2)n1 [Example 10] | 7.2

same assay, conditions: dose 160 mg. per kg., s.c.

SMILES | ΔMST (increase in mean survival time of treated animals to untreated controls)
Nc1nc(N)c2c(ccc3c2ccn3S(=O)(=O)c2ccc([N+](=O)[O-])cc2)n1 [Example 3] | 8.4

system: not listed separately; experiment: as above; conditions: mouse, in vivo, sc
Procedure: as §1, §2, §3, §4

SMILES | MTD at 1440 h [mg/kg]
Nc1nc(N)c2c(ccc3c2ccn3S(=O)(=O)c2cccc(C(F)(F)F)c2)n1 [Example 9] | 160
CC(=O)Nc1ccc(S(=O)(=O)n2ccc3c4c(N)nc(N)nc4ccc32)cc1 [Example 11] | 320
CC(C)(C)c1ccc(S(=O)(=O)n2ccc3c4c(N)nc(N)nc4ccc32)cc1 [Example 12] | 640

system: S. aureus Smith; experiment: In vitro antibacterial activity, MIC by agar dilution; type: cell-based; conditions: Staphylococcus aureus; Wellcotest Sensitivity Test Agar, 5% hemolyzed horse blood, 18 hours at 35° C.
Procedure: (§5) A stock solution or suspension of the test compound at a concentration of 2500 μg/ml. is prepared utilizing a suitable solvent or medium such as aqueous sodium hydroxide, aqueous lactic acid, methyl cellosolve, dimethylsulfoxide, dimethylacetamide, ethylene glycol, dimethylformamide, formamide, propylene glycol, acetone or methanol. Two-fold dilutions are made by adding appropriate amounts of sterile water to the solution or suspension of the test substance. One ml. quantities of each dilution are incorporated into Wellcotest Sensitivity Test Agar fortified with 5% hemolyzed horse blood (9 ml. vol.) in sterile Petri dishes to give plates containing varying concentrations of the test compound. The hardened surfaces of each plate are incubated with the test organism, and the plates are incubated for 18 hours at 35° C.

SMILES | MIC [µg/mL]
Nc1nc(N)c2c(ccc3c2ccn3S(=O)(=O)c2ccc([N+](=O)[O-])cc2)n1 [Example 3] | 7.81 (≈ 20.3 µM)
Nc1nc(N)c2c(ccc3c2ccn3S(=O)(=O)c2ccc3ccccc3c2)n1 [Example 4] | 250 (≈ 642 µM)
Nc1nc(N)c2c(ccc3c2ccn3S(=O)(=O)c2cccc(C(F)(F)F)c2)n1 [Example 9] | 3.9 (≈ 9.57 µM)
Nc1nc(N)c2c(ccc3c2ccn3S(=O)(=O)c2ccccc2)n1 [Example 10] | 1.95 (≈ 5.75 µM)
CC(=O)Nc1ccc(S(=O)(=O)n2ccc3c4c(N)nc(N)nc4ccc32)cc1 [Example 11] | 31.3 (≈ 79 µM)
CC(C)(C)c1ccc(S(=O)(=O)n2ccc3c4c(N)nc(N)nc4ccc32)cc1 [Example 12] | 7.81 (≈ 19.7 µM)

system: N. catarrhalis 8193; experiment: as above; type: cell-based; conditions: Wellcotest Sensitivity Test Agar, 5% hemolyzed horse blood, 18 hours at 35° C.
Procedure: as §5

SMILES | MIC [µg/mL]
Nc1nc(N)c2c(ccc3c2ccn3S(=O)(=O)c2ccc([N+](=O)[O-])cc2)n1 [Example 3] | 0.12 (≈ 0.312 µM)
Nc1nc(N)c2c(ccc3c2ccn3S(=O)(=O)c2ccc3ccccc3c2)n1 [Example 4] | 15.6 (≈ 40.1 µM)

system: S. aureus 53-180; experiment: as above; type: cell-based; conditions: Staphylococcus aureus, 53180; Wellcotest Sensitivity Test Agar, 5% hemolyzed horse blood, 18 hours at 35° C.
Procedure: as §5

SMILES | MIC [µg/mL]
Nc1nc(N)c2c(ccc3c2ccn3S(=O)(=O)c2ccc([N+](=O)[O-])cc2)n1 [Example 3] | 3.9 (≈ 10.1 µM)
Nc1nc(N)c2c(ccc3c2ccn3S(=O)(=O)c2ccc3ccccc3c2)n1 [Example 4] | 250 (≈ 642 µM)
Nc1nc(N)c2c(ccc3c2ccn3S(=O)(=O)c2cccc(C(F)(F)F)c2)n1 [Example 9] | 0.976 (≈ 2.4 µM)
Nc1nc(N)c2c(ccc3c2ccn3S(=O)(=O)c2ccccc2)n1 [Example 10] | 0.976 (≈ 2.88 µM)
CC(=O)Nc1ccc(S(=O)(=O)n2ccc3c4c(N)nc(N)nc4ccc32)cc1 [Example 11] | 31.3 (≈ 79 µM)
CC(C)(C)c1ccc(S(=O)(=O)n2ccc3c4c(N)nc(N)nc4ccc32)cc1 [Example 12] | 3.9 (≈ 9.86 µM)

system: P. vulgaris 6896; experiment: as above; type: cell-based; conditions: Proteus vulgaris, Wellcotest Sensitivity Test Agar, 5% hemolyzed horse blood, 18 hours at 35° C.
Procedure: as §5

SMILES | MIC [µg/mL]
Nc1nc(N)c2c(ccc3c2ccn3S(=O)(=O)c2ccc([N+](=O)[O-])cc2)n1 [Example 3] | > 250
Nc1nc(N)c2c(ccc3c2ccn3S(=O)(=O)c2ccc3ccccc3c2)n1 [Example 4] | > 250
Nc1nc(N)c2c(ccc3c2ccn3S(=O)(=O)c2cccc(C(F)(F)F)c2)n1 [Example 9] | > 250
Nc1nc(N)c2c(ccc3c2ccn3S(=O)(=O)c2ccccc2)n1 [Example 10] | 125 (≈ 368 µM)
CC(=O)Nc1ccc(S(=O)(=O)n2ccc3c4c(N)nc(N)nc4ccc32)cc1 [Example 11] | > 250
CC(C)(C)c1ccc(S(=O)(=O)n2ccc3c4c(N)nc(N)nc4ccc32)cc1 [Example 12] | > 250

system: S. paratyphi 11737; experiment: as above; type: cell-based; conditions: Salmonella enterica, Wellcotest Sensitivity Test Agar, 5% hemolyzed horse blood, 18 hours at 35° C., read-out: MIC, S. paratyphi 11737
Procedure: as §5

SMILES | MIC [µg/mL]
Nc1nc(N)c2c(ccc3c2ccn3S(=O)(=O)c2ccc([N+](=O)[O-])cc2)n1 [Example 3] | > 250
Nc1nc(N)c2c(ccc3c2ccn3S(=O)(=O)c2ccc3ccccc3c2)n1 [Example 4] | > 250
Nc1nc(N)c2c(ccc3c2ccn3S(=O)(=O)c2cccc(C(F)(F)F)c2)n1 [Example 9] | > 250
Nc1nc(N)c2c(ccc3c2ccn3S(=O)(=O)c2ccccc2)n1 [Example 10] | 15.6 (≈ 46 µM)
CC(=O)Nc1ccc(S(=O)(=O)n2ccc3c4c(N)nc(N)nc4ccc32)cc1 [Example 11] | > 250
CC(C)(C)c1ccc(S(=O)(=O)n2ccc3c4c(N)nc(N)nc4ccc32)cc1 [Example 12] | > 250

system: E. coli 9637; experiment: as above; type: cell-based; conditions: Escherichia coli, 9637; Wellcotest Sensitivity Test Agar, 5% hemolyzed horse blood, 18 hours at 35° C.; read-out: MIC, E. coli 9637
Procedure: as §5

SMILES | MIC [µg/mL]
Nc1nc(N)c2c(ccc3c2ccn3S(=O)(=O)c2ccc([N+](=O)[O-])cc2)n1 [Example 3] | 7.81 (≈ 20.3 µM)
Nc1nc(N)c2c(ccc3c2ccn3S(=O)(=O)c2ccc3ccccc3c2)n1 [Example 4] | > 250
Nc1nc(N)c2c(ccc3c2ccn3S(=O)(=O)c2cccc(C(F)(F)F)c2)n1 [Example 9] | > 250
Nc1nc(N)c2c(ccc3c2ccn3S(=O)(=O)c2ccccc2)n1 [Example 10] | 3.9 (≈ 11.5 µM)
CC(=O)Nc1ccc(S(=O)(=O)n2ccc3c4c(N)nc(N)nc4ccc32)cc1 [Example 11] | > 250
CC(C)(C)c1ccc(S(=O)(=O)n2ccc3c4c(N)nc(N)nc4ccc32)cc1 [Example 12] | 250 (≈ 632 µM)

system: K. pneumoniae 10031; experiment: as above; type: cell-based; conditions: Klebsiella pneumoniae, 10031; Wellcotest Sensitivity Test Agar, 5% hemolyzed horse blood, 18 hours at 35° C.; read-out: MIC, K. pneumoniae 10031
Procedure: as §5

SMILES | MIC [µg/mL]
Nc1nc(N)c2c(ccc3c2ccn3S(=O)(=O)c2ccc([N+](=O)[O-])cc2)n1 [Example 3] | 3.9 (≈ 10.1 µM)
Nc1nc(N)c2c(ccc3c2ccn3S(=O)(=O)c2ccc3ccccc3c2)n1 [Example 4] | > 250
Nc1nc(N)c2c(ccc3c2ccn3S(=O)(=O)c2cccc(C(F)(F)F)c2)n1 [Example 9] | 3.9 (≈ 9.57 µM)
Nc1nc(N)c2c(ccc3c2ccn3S(=O)(=O)c2ccccc2)n1 [Example 10] | 0.488 (≈ 1.44 µM)
CC(=O)Nc1ccc(S(=O)(=O)n2ccc3c4c(N)nc(N)nc4ccc32)cc1 [Example 11] | 7.81 (≈ 19.7 µM)
CC(C)(C)c1ccc(S(=O)(=O)n2ccc3c4c(N)nc(N)nc4ccc32)cc1 [Example 12] | 1.95 (≈ 4.93 µM)
